From PMC8689007, “In Silico Prediction and Bioactivity Evaluation of Chemical Ingredients Against Influenza A Virus From Isatis tinctoria L” (Frontiers in Pharmacology, 2021)
In brackets after ≈: the same amount, converted by molar mass. Several values for one entry are separate records, joined by “and”; a condition that tells them apart may be missing. Identical values can stand only once. Like-named read-outs stand apart in the source and are kept apart here.

How the values were obtained:
[1] = system: A/PR/8/34 (H1N1)
[2] = system: A/HebeiXinhua/SWL1106/2017 (oseltamivir- and amantadine-resistant H1N1); experiment: microbe, parasite or virus in culture; settings: Influenza A virus, H1N1, MDCK
[3] = system: A/HebeiXinhua/SWL1106/2017 (oseltamivir- and amantadine-resistant H1N1)

SMILES: COc1c(O)cc2oc(-c3ccc(O)cc3)cc(=O)c2c1O [Dinatin]
- SI, selection index (TC50/IC50) [1]: >2.66

SMILES: NC12CC3CC(CC(C3)C1)C2 [Amantadine]
- IC50 [2]: > 100 µg/mL

SMILES: COc1ccc(-c2cc(=O)c3c(O)c(OC)c(OC)cc3o2)cc1O [Eupatorin]
- IC50 [2]: 71.8 ± 6.58 µg/mL (≈ 209 µM)
- IC50 [3]: 87.17 ± 5.23 µg/mL and 69.16 ± 2.12 µg/mL and 89.29 ± 5.22 µg/mL

SMILES: CCOC(=O)C1=C[C@@H](OC(CC)CC)[C@H](NC(C)=O)[C@@H](N)C1 [Oseltamivir]
- IC50 [2]: > 100 µg/mL
